Test results reported in publication PMC3288053 (PLoS ONE, 2012).

Columns and labels:
Assay type in all cases: cell-based
GLUT4 promoter = assay: GLUT4 promoter-luciferase reporter assay in 3T3-L1 adipocytes; conditions: pre-treated 24 hours
Protocol: (a) Chemical structure of (+)-Rutamarin. […] Green fluorescence represents the total GLUT4, and red fluorescence depicts the translocated GLUT4 to cell membrane. (d) Insulin (170 nM)-induced GLUT4 translocation of CHO-K1/GLUT4 cells treated with compound-2 (C2, 10 µM), pervanadate (Pervan, 100 µM) and Rut (5, 10, 20 µM) for 5 minutes. (e) Immunofluorescence with antibody against GLUT4 (green), DAPI (blue) in 3T3-L1 adipocytes. GLUT4 translocation is detected either in the insulin (17 nM) stimulated 3T3-L1 adipocytes for 5 minutes, or pre-treated with Rut (20 µM) for 8 hours and then stimulated with insulin (17 nM) for 5 minutes. (f) Rut potently stimulates GLUT4 promoter activity in 3T3-L1 adipocytes (20 µM, Rut was pre-treated in the cells for 24 hours. Reporter gene is GLUT4 promoter-luciferase plasmid together with Renilla luciferase expression vector as a control). (g) H^3-glucose uptake assay in fully differentiated 3T3-L1 adipocytes treated with C2 (10 µM) and different doses of Rut (5–25 µM). Treatment of Rut for 30 minutes improves the insulin (17 nM)-stimulated glucose uptake. (h) GLUT4 expression is determined by western blotting with an antibody against GLUT4 in 3T3-L1 adipocytes treated with Rut (20 µM) for 48 hours. Data are presented as means ± s.e.m (*P<0.05, **P<0.01) from three independent experiments.

[1] = test system: IR (Tyr1146), AKT (Ser473) in 3T3-L1 adipocytes; assay: Western blot of IR and AKT phosphorylation; conditions: insulin 17 nM, 5 minutes
Protocol: (§1) Insulin sensitizing effects of Rut are investigated in CHO-K1 and 3T3-L1 adipocytes. After incubation with compounds in serum-free medium for indicated time, cells are stimulated with insulin (170 nM for CHO-K1 cells and 17 nM for 3T3-L1 adipocytes) for 5 min, and the stimulation is stopped by ice-cold PBS. The effect of Rut on insulin signaling is also investigated in CHO-K1 cells. In the assay, cells are stimulated with Rut (20 µM, 8 h) or insulin (170 nM, 5 min), and then lysed on ice. GLUT4 protein level is studied in the differentiated 3T3-L1 adipocytes (the 10th day after MDI stimulation). After incubation of compounds for 48 h, cells are lysed on ice. The proteins are resolved by SDS-polyacrylamide gel electrophoresis and electro-transferred to polyvinylidene difluoride membranes. The membrane is blocked by 5% skimmed milk and incubated with antibodies. Proteins are visualized by the ECL detecting system.

[2] = test system: IR (Tyr1146), AKT (Ser473) in CHO-K1 cells; assay: Western blot of IR and AKT phosphorylation; conditions: insulin 170 nM, 5 minutes, different doses of Rut
Protocol: as §1

With `C=CC(C)(C)c1cc2cc3c(cc2oc1=O)O[C@H](C(C)(C)OC(C)=O)C3` [(+)-Rutamarin] the GLUT4 promoter activity (GLUT4 promoter) was “dose-dependently induce”, the “insulin-stimulated phosphorylation levels of IR and AKT” value [1] was “largely increased” and the “insulin-induced phosphorylation of IR and AKT” value [2] was “enhances”.
